# Test results from ChEMBL document CHEMBL4130544, “Bioactive Asarone-Derived Phenylpropanoids from the Rhizome of Acorus tatarinowii Schott” (J Nat Prod, 2017).
# Calls of active or inactive are those of the source. The calls are words filed in the database; no cut-off is given here.
# Molecular target: Acetylcholinesterase (Homo sapiens) (UniProt P22303)
# Assay: Inhibition of AChE (unknown origin) at 100 uM using acetylthiocholine iodide as substrate measured after 30 mins by Ellman's method
# Sequence of Acetylcholinesterase (Homo sapiens) (P22303 whole entry): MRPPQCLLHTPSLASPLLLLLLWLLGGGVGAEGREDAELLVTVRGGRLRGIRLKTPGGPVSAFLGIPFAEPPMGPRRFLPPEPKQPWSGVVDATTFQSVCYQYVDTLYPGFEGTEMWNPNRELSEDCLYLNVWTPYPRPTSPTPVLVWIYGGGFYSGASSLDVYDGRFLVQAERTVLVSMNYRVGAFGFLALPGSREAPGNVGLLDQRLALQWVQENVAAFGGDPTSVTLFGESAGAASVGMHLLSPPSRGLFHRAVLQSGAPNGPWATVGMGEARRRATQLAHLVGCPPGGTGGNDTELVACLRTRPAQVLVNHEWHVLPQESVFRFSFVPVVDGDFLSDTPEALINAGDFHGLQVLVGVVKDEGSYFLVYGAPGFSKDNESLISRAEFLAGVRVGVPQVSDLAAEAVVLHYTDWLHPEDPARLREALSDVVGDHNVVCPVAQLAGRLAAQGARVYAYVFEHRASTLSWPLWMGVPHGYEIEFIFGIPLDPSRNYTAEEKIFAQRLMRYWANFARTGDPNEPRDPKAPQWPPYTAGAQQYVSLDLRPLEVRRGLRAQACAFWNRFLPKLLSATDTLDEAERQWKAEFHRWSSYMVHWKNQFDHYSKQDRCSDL
row,Structure (SMILES),inhibition
1,COc1cc(OC)c([C@@H](OC)[C@@H](C)O)cc1OC,Active
2,CCO[C@H](c1cc(OC)c(OC)cc1OC)[C@@H](C)O,Active
3,CCO[C@@H](c1cc(OC)c(OC)cc1OC)[C@@H](C)O,Active
4,CCO[C@@H](c1cc(OC)c(OC)cc1OC)[C@H](C)O,Active
5,COc1cc(OC)c([C@@H](OC)[C@H](C)O)cc1OC,Active
6,COc1cc(OC)c([C@H](OC)[C@H](C)O)cc1OC,Active
7,CCO[C@H](c1cc(OC)c(OC)cc1OC)[C@H](C)O,Active
8,COc1ccc(CCCO)cc1OC,Active
9,COc1cc(OC)c([C@@H](C)C(OC)OC)cc1OC,Active
10,COc1cc(OC)c([C@@H]2[C@@H](C)[C@H](c3cc(OC)c(OC)cc3OC)O[C@@H]2C)cc1OC (racemic),Active
11,COc1cc(OC)c(C(O)C(C)=O)cc1OC (stereo not drawn),Active
12,COc1cc([C@H]2OC[C@H]3[C@@H]2CO[C@@H]3c2ccc(O)c(OC)c2)ccc1O (racemic),Active
13,COc1cc(OC)c(C(C)=O)cc1OC,Active
14,COc1cc([C@H]2Oc3c(OC)cc(CCCO)cc3[C@@H]2CO[C@@H]2O[C@H](CO)[C@@H](O)[C@H](O)[C@H]2O)ccc1O,Active
15,COc1cc(OC)c([C@H](O)[C@@H](C)O)cc1OC (relative stereo),Active
16,COc1cc(OC)c([C@H](C)C(OC)OC)cc1OC,Active
17,COc1cc(OC)c([C@H](OC)[C@@H](C)O)cc1OC,Active
18,COc1cc(OC)c([C@@H](O)[C@@H](C)O)cc1OC (relative stereo),Active
19,COc1cc(OC)c(OC)cc1C=O,Active
20,COc1cc([C@H]2Oc3c(OC)cc(CCCO[C@@H]4O[C@H](CO)[C@@H](O)[C@H](O)[C@H]4O)cc3[C@@H]2CO)ccc1O,Active

# Tested on: not listed separately
# Assay: Antioxidant activity assessed as DPPH radical scavenging activity at 100 uM incubated for 30 mins under dark condition
# Format: functional
row,Structure (SMILES),Activity
1,COc1cc([C@H]2OC[C@H]3[C@@H]2CO[C@@H]3c2ccc(O)c(OC)c2)ccc1O (racemic),Active
2,COc1cc([C@H]2Oc3c(OC)cc(CCCO)cc3[C@@H]2CO[C@@H]2O[C@H](CO)[C@@H](O)[C@H](O)[C@H]2O)ccc1O,Active
3,COc1cc([C@H]2Oc3c(OC)cc(CCCO[C@@H]4O[C@H](CO)[C@@H](O)[C@H](O)[C@H]4O)cc3[C@@H]2CO)ccc1O,Active

# Tested on: not listed separately
# Assay: Antioxidant activity assessed as AAPH radical scavenging activity at 12.5 uM by ORAC-FL assay
# Format: functional
row,Structure (SMILES),Activity
1,O=C(O[C@@H]1Cc2c(O)cc(O)cc2O[C@@H]1c1cc(O)c(O)c(O)c1)c1cc(O)c(O)c(O)c1,1.97 µMequiv/µM
2,COc1cc([C@H]2OC[C@H]3[C@@H]2CO[C@@H]3c2ccc(O)c(OC)c2)ccc1O (racemic),Active
3,COc1cc([C@H]2Oc3c(OC)cc(CCCO)cc3[C@@H]2CO[C@@H]2O[C@H](CO)[C@@H](O)[C@H](O)[C@H]2O)ccc1O,Active
4,COc1cc([C@H]2Oc3c(OC)cc(CCCO[C@@H]4O[C@H](CO)[C@@H](O)[C@H](O)[C@H]4O)cc3[C@@H]2CO)ccc1O,3.17 µMequiv/µM

# Molecular target: T1, Alpha glucosidase (Homo sapiens, UniProt O43451+P10253+P14410+Q2M2H8)
# Assay: Inhibition of alpha-glucosidase (unknown origin) using p-NPG as substrate pretreated for 10 mins followed by substrate addition measured after 5 mins
# Format: protein assay
row,Structure (SMILES),IC50 [µM]
1,COc1cc(OC)c([C@@H](OC)[C@H](C)O)cc1OC,80.6

# Molecular target: T1, Alpha glucosidase
# Assay: Inhibition of alpha-glucosidase (unknown origin) at 400 uM using p-NPG as substrate pretreated for 10 mins followed by substrate addition measured after 5 mins
# Format: protein assay
row,Structure (SMILES),inhibition
1,COc1cc(OC)c([C@@H](OC)[C@@H](C)O)cc1OC,Active
2,CCO[C@H](c1cc(OC)c(OC)cc1OC)[C@@H](C)O,Active
3,CCO[C@@H](c1cc(OC)c(OC)cc1OC)[C@@H](C)O,Active
4,CCO[C@@H](c1cc(OC)c(OC)cc1OC)[C@H](C)O,Active
5,COc1cc(OC)c([C@@H](OC)[C@H](C)O)cc1OC,Active
6,COc1cc(OC)c([C@H](OC)[C@H](C)O)cc1OC,Active
7,CCO[C@H](c1cc(OC)c(OC)cc1OC)[C@H](C)O,Active
8,COc1ccc(CCCO)cc1OC,Active
9,COc1cc(OC)c([C@@H](C)C(OC)OC)cc1OC,Active
10,COc1cc(OC)c([C@@H]2[C@@H](C)[C@H](c3cc(OC)c(OC)cc3OC)O[C@@H]2C)cc1OC (racemic),Active
11,COc1cc(OC)c(C(O)C(C)=O)cc1OC (stereo not drawn),Active
12,COc1cc([C@H]2OC[C@H]3[C@@H]2CO[C@@H]3c2ccc(O)c(OC)c2)ccc1O (racemic),Active
13,COc1cc(OC)c(C(C)=O)cc1OC,Active
14,COc1cc([C@H]2Oc3c(OC)cc(CCCO)cc3[C@@H]2CO[C@@H]2O[C@H](CO)[C@@H](O)[C@H](O)[C@H]2O)ccc1O,Active
15,COc1cc(OC)c([C@H](O)[C@@H](C)O)cc1OC (relative stereo),Active
16,COc1cc(OC)c([C@H](C)C(OC)OC)cc1OC,Active
17,COc1cc(OC)c([C@H](OC)[C@@H](C)O)cc1OC,inactive
18,COc1cc(OC)c([C@@H](O)[C@@H](C)O)cc1OC (relative stereo),Active
19,COc1cc(OC)c(OC)cc1C=O,Active
20,COc1cc([C@H]2Oc3c(OC)cc(CCCO[C@@H]4O[C@H](CO)[C@@H](O)[C@H](O)[C@H]4O)cc3[C@@H]2CO)ccc1O,Active
